The values that follow come from PMC9696374, “Antiandrogenic Effects of a Polyphenol in Carex kobomugi through Inhibition of Androgen Synthetic Pathway and Downregulation of Androgen Receptor in Prostate Cancer Cell Lines” (International Journal of Molecular Sciences, 2022).

The target of the experiment is T1, dehydrogenase/reductase SDR family member 11 (DHRS11) (Homo sapiens, UniProt Q6UWP2).
T1 construct: Homogenous recombinant DHRS11
T1 sequence (Q6UWP2 31-260): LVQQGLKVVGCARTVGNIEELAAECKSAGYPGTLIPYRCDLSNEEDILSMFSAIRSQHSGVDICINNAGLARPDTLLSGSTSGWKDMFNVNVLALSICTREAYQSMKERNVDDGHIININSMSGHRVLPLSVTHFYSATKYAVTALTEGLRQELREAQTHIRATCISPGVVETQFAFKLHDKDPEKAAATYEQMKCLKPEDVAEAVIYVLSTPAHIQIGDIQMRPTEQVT
As to the kind of experiment: reductase activity of recombinant DHRS11, NADPH absorbance at […] nm, isatin substrate. Type of experiment: biochemical.

For `Cc1c(O)cc(O)c2c(=O)cc(/C=C/c3ccc(O)cc3)oc12` [VI, 5,7-dihydroxy-8-methyl-2-[2-(4-hydroxyphenyl)ethenyl]-4H-1-benzopyran-4-one], the IC50 came out at 350 ± 30 nM.

The IC50 is the concentration that gives 50% inhibition.
